From PMC10044725, “Antioxidant, Anti-Inflammatory and Anti-Diabetic Activities of Tectona grandis Methanolic Extracts, Fractions, and Isolated Compounds” (Antioxidants, 2023)

What was measured:
TNF-α = TNF-α secretion in LPS-stimulated RAW 264.7 macrophages (ELISA); assay type: cell-based, mouse; details: 40 µM, LPS 1 µg/mL, 48 h, vs model control (p < 0.01)
Experimental: In order to increase cytokine production, macrophages were treated with LPS at a final concentration of 1 µg/mL, and then with T. grandis compounds at 40 µM. The compounds were solubilized in DMEM medium containing 0.1% DMSO. Dexamethasone was employed as a positive control (5 µg/mL). A centrifuge was used to separate the supernatant from the cells after 48 h of incubation, with three replicates per group. Quantification of TNF-α, IL-1β and IL-6 secretion was achieved by following the ELISA manufacturer's instructions. Then, absorbance was measured at 450 nm. Relative TNF-α, IL-1β and IL-6 expression was calculated according to Equation (4). Following the inflammatory factor test, cell viability was detected by CellTiter96® Aqueous One Solution Cell Proliferation Assay. Then, 20 μL/well CellTiter96® Aqueous One Solution Cell Growth Assay reagent was added to the plate and incubated at 37 °C for 8 h, absorbance was measured at […] and relative cell viability was calculated according to Equation (5). Relative content of inflammatory cytokines (%) = (A1/A2)/A3 × 100%(4) where A1 is the concentrations value of inflammatory cytokines of each group, A2 is the relative cell viability of each group (model group is 100) and A3 is the concentration of inflammatory cytokines of model group. Cell viability rate (%) = B1/B2 × 100%(5) where B1 is the OD value of each fraction group or positive control group and B2 is the OD value of the model control.

3T3-L1 adipocytes = test: Glucose uptake assay in 3T3-L1 adipocytes; assay type: cell-based, mouse; details: compounds at 40 µM, 48 h (Figure 11A(b))
Experimental: Mouse 3T3-L1 preadipocyte cells were maintained in DMEM supplemented with 10% NBCS and 1% P/S at 37 °C in a humidified environment with 5% CO2, and then began starvation when the cells grew to 80% confluence (day 0). To facilitate differentiation to adipocytes, 2-days post-confluent cells were placed in 10% FBS DMEM supplemented with 1% P/S, 0.5 mM IBMX, 1 μM Dex, 1 μM Rosi and 100 nM insulin (day 2). For another three days (day 5), the medium was changed to high glucose DMEM containing 10% FBS, 1% P/S and 100 nM insulin for one day (day 6), and the 3T3-L1 preadipocytes were fully differentiated into mature adipocytes.
Next, differentiated 3T3-L1 adipocytes at a density of 5 × 10^4 cells/well were cultured with DMEM in 96-well plates and divided into the blank control group, model group, insulin group (100 ng/mL), berberine group (10 μg/mL) and compound groups (40 μM). […] After 24 and 48 h of culture, glucose uptake was initiated by the addition of […] medium and 190 μL glucose detection reagent to each well, reaction at 37 °C for 15 min, and the glucose uptake was measured according to the operating instructions of the glucose content determination kit. Following the glucose uptake test, cell viability was detected by CellTiter96® Aqueous One Solution Cell Proliferation Assay. […] Absorbance was measured at 490 nm and relative cell viability was calculated according to Equation (7). […]

O=C(O)c1cc(O)c(O)c(O)c1 [Compound 23, gallic acid]
effect on TNF-α inflammatory factor level (TNF-α): could decrease
effect on glucose uptake (3T3-L1 adipocytes): significantly promote
